Assay: Functional Dkk1-LRP5-TCF-Luciferase Assay in U2OS Cells (table columns: A=MAX FOLD Induction/DMSO CONTROL; B=fold induction @ 2.0 uM; C=fold induction @ 20.0 uM)
Format: cell-based, Human
Conditions: Homo sapiens, U2OS; for fold induction at 2 µM: 2.0 uM compound; for fold induction at 20 µM: 20.0 uM compound
Outline: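 U2OS cells co-transfected with 16×TCF-TK-firefly luciferase, TK-Renilla control, Wnt3a and Dkk1, then frozen; thawed cells (~5,000/well, ~5% FBS, phenol red-free RPMI) incubated ~20 h at 37° C. with compound (0.25% DMSO). Firefly luminescence (Bright-Glo) normalized to DMSO mean as fold induction.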

Row | SMILES | fold induction at 2 µM | fold induction at 20 µM
1 | O=[N+]([O-])c1ccc(-c2nc3c(-c4ccc5ccccc5c4)ccnc3n2C2CCNCC2)cc1 [7-(2-naphthyl)-2-(4-nitrophenyl)-3-piperidin-4-yl-3H-imidazo[4,5-b]pyridine] | 1.42 | –
2 | Cc1nc2c(-c3ccc4ccccc4c3)ccnc2n1CC1CCNCC1 [2-methyl-7-(2-naphthyl)-3-(piperidin-4-ylmethyl)-3H-imidazo[4,5-b]pyridine] | 1.12 | 0.08
3 | Clc1nc2ccccc2cc1-c1nc2c(-c3ccc4ccccc4c3)ccnc2n1C1CCNCC1 [2-chloro-3-[7-(2-naphthyl)-3-piperidin-4-yl-3H-imidazo[4,5-b]pyridin-2-yl]quinoline] | 1.6 | –
4 | Fc1ccccc1-c1nc2c(-c3ccc4ccccc4c3)ccnc2n1C1CCNCC1 [2-(2-fluorophenyl)-7-(2-naphthyl)-3-piperidin-4-yl-3H-imidazo[4,5-b]pyridine] | 1.29 | –
5 | Fc1ccc(-c2nc3cc(-c4ccc5ccccc5c4)cnc3n2C2CCNCC2)c(F)c1 [2-(2,4-difluorophenyl)-6-(2-naphthyl)-3-piperidin-4-yl-3H-imidazo[4,5-b]pyridine] | 1.22 | –
6 | O=C(NC1CCCCC1)N1CCC(n2cnc3c(-c4ccc5ccccc5c4)ccnc32)CC1 [N-cyclohexyl-4-[7-(2-naphthyl)-3H-imidazo[4,5-b]pyridin-3-yl]piperidine-1-carboxamide] | 0.97 | 0.03
7 | CCNC(=O)N1CCC(n2cnc3c(-c4ccc5ccccc5c4)ccnc32)CC1 [N-ethyl-4-[7-(2-naphthyl)-3H-imidazo[4,5-b]pyridin-3-yl]piperidine-1-carboxamide] | 1.52 | 1.29
8 | Cc1ccc(-c2nc3cc(-c4ccc5ccccc5c4)cnc3n2C2CCNCC2)cc1 [2-(4-methylphenyl)-6-(2-naphthyl)-3-piperidin-4-yl-3H-imidazo[4,5-b]pyridine] | 1 | –
9 | CCCc1nc2c(-c3ccc4ccccc4c3)ccnc2n1C1CCNCC1 [7-(2-naphthyl)-3-piperidin-4-yl-2-propyl-3H-imidazo[4,5-b]pyridine] | 1.93 | –
10 | CC(C)c1ccc(-c2nc3c(-c4ccc5ccccc5c4)ccnc3n2C2CCNCC2)cc1 [2-(4-isopropylphenyl)-7-(2-naphthyl)-3-piperidin-4-yl-3H-imidazo[4,5-b]pyridine] | 1.03 | –
11 | Cn1c(=O)n(C2CCN(C(=O)N3CCOCC3)CC2)c2nccc(-c3ccc4ccccc4c3)c21 [1-methyl-3-[1-(morpholin-4-ylcarbonyl)piperidin-4-yl]-7-(2-naphthyl)-1,3-dihydro-2H-imidazo[4,5-b]pyridin-2-one] | 1.29 | 0.21
12 | CC(C)(C)c1ccc(-c2nc3c(-c4ccc5ccccc5c4)ccnc3n2C2CCNCC2)cc1 [2-(4-tert-butylphenyl)-7-(2-naphthyl)-3-piperidin-4-yl-3H-imidazo[4,5-b]pyridine] | 1.88 | –
13 | Cc1cccc(-c2nc3c(-c4ccc5ccccc5c4)ccnc3n2C2CCNCC2)c1 [2-(3-methylphenyl)-7-(2-naphthyl)-3-piperidin-4-yl-3H-imidazo[4,5-b]pyridine] | 1.91 | –
14 | Cc1ccc(CCn2c(C)nc3c(-c4ccc5ccccc5c4)ccnc32)cc1 [2-methyl-3-[2-(4-methylphenyl)ethyl]-7-(2-naphthyl)-3H-imidazo[4,5-b]pyridine] | 0.82 | 1
15 | c1ccc2cc(-c3cnc4c(c3)nc(-c3cccc5ccccc35)n4C3CCNCC3)ccc2c1 [2-(1-naphthyl)-6-(2-naphthyl)-3-piperidin-4-yl-3H-imidazo[4,5-b]pyridine] | 1.11 | –
16 | Cc1ccc(CCn2cnc3c(-c4ccc5ccccc5c4)ccnc32)cc1 [3-[2-(4-methylphenyl)ethyl]-7-(2-naphthyl)-3H-imidazo[4,5-b]pyridine] | 0.76 | 0.98
17 | Clc1cccc(-c2nc3c(-c4ccc5ccccc5c4)ccnc3n2C2CCNCC2)c1 [2-(3-chlorophenyl)-7-(2-naphthyl)-3-piperidin-4-yl-3H-imidazo[4,5-b]pyridine] | 1.5 | –
